One experiment deals with MCF-10A. The following applies: 72 h. The essentials:
(§1)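 Two sequential readouts followed a 72 h incubation of breast cancer cell lines with compound at 5 concentrations in 10-fold steps over a compound-specific 10,000-fold range: CellTox Green fluorescence (485/520 nm) for cell death, then CellTiter-Glo luminescence, after 10 min at room temperature, for viability. Each plate was normalised to 0.1 % DMSO and a positive kill control. Dose-response curves were fitted for EC50, censored at the top concentration.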

Experiment [1] concerns BT-549. The following applies: 72 h. The essentials:
as §1

Experiment [2] concerns MDA-MB-231. To be noted: 72 h. In short, it runs like this:
as §1

Experiment [3] has as its system HCC1143. To be noted: 72 h. The essentials:
as §1

The test system of experiment [4] is MDA-MB-468. To be noted: 72 h. The essentials:
as §1

In experiment [5] the test system is MDA-MB-436. To be noted: 72 h. The essentials: as §1
Experiment [6] deals with MFM-223. The following applies: 72 h. The essentials: as §1
The subject of experiment [7] is CAL-51. To be noted: 72 h. The essentials:
as §1

Experiment [8] has as its system BT-474. To be noted: 72 h. In short, it runs like this: as §1
Experiment [9] deals with DU-4475. The following applies: 72 h. The essentials:
as §1

Experiment [10] deals with CAL-120. To be noted: 72 h. The essentials: as §1
For experiment [11], the system named is SK-BR-3. The following applies: 72 h. The essentials: as §1
The test system of experiment [12] is Hs578T. To be noted: 72 h. In short, it runs like this: as §1
Experiment [13] deals with BT-549. Put plainly: normalised viability (% of control), CellTiter-Blue; higher = more viable cells (100 = DMSO, 0 = benzethonium chloride kill control). The following applies: incubation time: 72 h. The protocol: (§2)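 DSRT, CellTiter-Blue viability, 72 h incubation. Signal is normalised to DMSO and benzethonium chloride controls. Value is the normalised response at dose 1.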

The next experiment deals with HCC1599. Described as above. To be noted: incubation time: 72 h. On the procedure:
as §2

Experiment [14] deals with MDA-MB-231. Described as above. The following applies: incubation time: 72 h. The protocol:
as §2

Experiment [15] has as its system HCC1143. The description is as above. To be noted: incubation time: 72 h. The protocol:
as §2

In another experiment the test system is CAL-85-1. The experiment is described as above. To be noted: incubation time: 72 h. On the procedure:
as §2

In experiment [16] the test system is MDA-MB-468. Described as above. To be noted: incubation time: 72 h. On the procedure:
as §2

The subject of another experiment is CAL-148. The description is as above. The following applies: incubation time: 72 h. On the procedure:
as §2

Another experiment concerns HCC1937. Described as above. The following applies: 1 nM; incubation time: 72 h. The protocol: as §2
Experiment [17] has as its system MDA-MB-436. The experiment is described as above. To be noted: incubation time: 72 h. On the procedure:
as §2

For another experiment, the system named is HDQ-P1. The description is as above. To be noted: incubation time: 72 h. On the procedure:
as §2

Experiment [18] relates to MFM-223. The description is as above. To be noted: incubation time: 72 h. On the procedure: as §2
The test system of the next experiment is MDA-MB-453. Described as above. The following applies: incubation time: 72 h. On the procedure: as §2
Experiment [19] has as its system CAL-51. Described as above. To be noted: incubation time: 72 h. The protocol:
as §2

Experiment [20] relates to BT-474. The description is as above. The following applies: incubation time: 72 h. On the procedure:
as §2

Experiment [21] has as its system DU-4475. The description is as above. The following applies: incubation time: 72 h. The protocol:
as §2

For experiment [22], the system named is CAL-120. The description is as above. The following applies: incubation time: 72 h. The protocol: as §2
The subject of experiment [23] is SK-BR-3. Described as above. The following applies: incubation time: 72 h. On the procedure:
as §2

Experiment [24] concerns Hs578T. Described as above. The following applies: incubation time: 72 h. On the procedure: as §2
Experiment [25] concerns HCC1143. To be noted: 72 h. In short, it runs like this:
(§3)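 Plates of 384 wells holding compound in 5 µl medium received breast cancer cell lines in 20 µl suspension and were incubated 72 h. CellTiter-Blue (2.5 µl, 2 h, 37 °C) was used for viability, read at 560/590 nm, and every plate was normalised to vehicle and a positive kill control and assessed by Z'-factor. The EC50 derives from a percent-inhibition dose-response curve fit censored at the highest concentration, leaving out rows whose drug sensitivity score was zero.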
The source holds these as a separate data set.

The test system of experiment [26] is CAL-120. To be noted: 72 h. In short, it runs like this: as §3
This is another data set of the same source.

Values joined by “and” are separate entries in the source; they are usually repeats but may differ in a detail not shown here. Equal values may be shown once.

As for `CC(=O)OC[C@H]1O[C@@H]([S-])[C@H](OC(C)=O)[C@@H](OC(C)=O)[C@@H]1OC(C)=O.CCP(CC)CC.[Au+]` [Auranofin], the “EC50, CellTiter-Glo” value worked out at 1630 nM in the experiment with MCF-10A; 386 nM in the experiment on BT-549 [1]; 1010 nM with MDA-MB-231 [2]; 559 nM in the experiment on HCC1143 [3]; 140 nM in the experiment with MDA-MB-468 [4]; 560 nM in the experiment on MDA-MB-436 [5]. Moreover, the “EC50, CellTiter-Glo” value was 1460 nM in the experiment with MFM-223 [6]; 199 nM in the experiment on CAL-51 [7]; 2390 nM in the experiment with BT-474 [8]; 1870 nM with DU-4475 [9]; 2490 nM in the experiment on CAL-120 [10]; 1730 nM in the experiment with SK-BR-3 [11]. Moreover, the “EC50, CellTiter-Glo” value in the experiment with Hs578T [12] stood at 1020 nM.

As to `CCC/C=C/C=C/C(=O)O[C@H]1/C(=C/C(=O)OC)C[C@H]2C[C@H]([C@@H](C)O)OC(=O)C[C@H](O)C[C@@H]3C[C@H](OC(C)=O)C(C)(C)[C@](O)(C[C@@H]4C/C(=C/C(=O)OC)C[C@H](/C=C/C(C)(C)[C@]1(O)O2)O4)O3` [Bryostatin 1], the normalised viability with BT-549 [13] (0.01 nM) came to 109%; in the experiment on HCC1599 (0.01 nM), 123%; in the experiment with MDA-MB-231 [14] (1 nM), 98.7%; in the experiment with HCC1143 [15] (0.01 nM) it was 114%; in the experiment with CAL-85-1 (0.01 nM), 97.5%; in the experiment on MDA-MB-468 [16] (1 nM) it was 99.1%. Further, the normalised viability was determined as 98.8% in the experiment with CAL-148 (0.01 nM); 85.2% in the experiment on HCC1937; 140% with MDA-MB-436 [17] (0.01 nM); 100% in the experiment with HDQ-P1 (0.01 nM); 96.2% in the experiment on MFM-223 [18] (0.01 nM); 102% with MDA-MB-453 (0.01 nM). The normalised viability in the experiment on CAL-51 [19] (0.01 nM) worked out at 99.2%; with BT-474 [20] (1 nM), 105%; with DU-4475 [21] (0.01 nM) it was 118%; in the experiment on CAL-120 [22] (0.01 nM), 85.8%; in the experiment with SK-BR-3 [23] (1 nM) it was 103%; in the experiment with Hs578T [24] (0.01 nM), 106%. Also, the “EC50, CellTiter-Glo” value was more than 100 nM in the experiment on BT-549 [1], 0.32 nM in the experiment with CAL-51 [7], 0.1 nM in the experiment with SK-BR-3 [11] and 1.41 nM with Hs578T [12].

For the compound `Cc1nc(Nc2ncc(C(=O)Nc3c(C)cccc3Cl)s2)cc(N2CCN(CCO)CC2)n1` [Dasatinib], the normalised viability is 101% and 89.2% in the experiment with BT-549 [13] (0.1 nM); 106% and 88.6% in the experiment on HCC1599 (0.1 nM); 110% and 86.5% in the experiment on MDA-MB-231 [14] (0.1 nM); 102% and 84.5% in the experiment on HCC1143 [15] (0.1 nM); 97.2% and 88.5% in the experiment on CAL-85-1 (0.1 nM); 109% and 100% in the experiment on MDA-MB-468 [16] (0.1 nM). Further, the normalised viability with CAL-148 (0.1 nM) was 104% and 96.1%; in the experiment with MDA-MB-436 [17] (0.1 nM), 94.8% and 91.2%; in the experiment with HDQ-P1 (0.1 nM), 126% and 109%; with MFM-223 [18] (0.1 nM) it was 99.2% and 94.2%; in the experiment with MDA-MB-453 (0.1 nM), 103% and 97.2%; with CAL-51 [19] (0.1 nM), 105% and 114%. Moreover, the normalised viability with BT-474 [20] (0.1 nM) was 97.5% and 85.4%; in the experiment with DU-4475 [21] (0.1 nM) it was 109% and 110%; in the experiment with CAL-120 [22] (0.1 nM), 104% and 85.6%; in the experiment on SK-BR-3 [23] (0.1 nM), 98.2% and 92.7%; with Hs578T [24] (0.1 nM), 107% and 97.2%. Besides, the “EC50, CellTiter-Glo” value came to 16.4 nM in the experiment with MCF-10A; 40.6 nM in the experiment with BT-549 [1]; 16.4 nM in the experiment with MDA-MB-231 [2]; 29.5 nM with HCC1143 [3]; 28.5 nM in the experiment on MDA-MB-468 [4]; 12.7 nM with CAL-51 [7]. For the same compound, the “EC50, CellTiter-Glo” value in the experiment on BT-474 [8] is 14 nM; in the experiment on CAL-120 [10] it was 36.6 nM; in the experiment with Hs578T [12], 88.7 nM. Further, the “EC50, CellTiter-Blue viability” value in the experiment on HCC1143 [25] came to 34.5 nM; with CAL-120 [26], 56.3 nM.

On to `O=S(=O)(c1cccc2cnccc12)N1CCCNCC1` [Fasudil], for which the normalised viability with BT-549 [13] (1 nM) was determined as 98.8%; with HCC1599 (1 nM), 99.4%; in the experiment with MDA-MB-231 [14] (1 nM), 106%; in the experiment with HCC1143 [15] (1 nM), 92.8%; with CAL-85-1 (1 nM) it was 96%; with MDA-MB-468 [16] (1 nM), 102%. Also, the normalised viability worked out at 90.8% in the experiment with CAL-148 (1 nM); 88.6% in the experiment on HCC1937; 109% in the experiment with MDA-MB-436 [17] (1 nM); 99.9% in the experiment on HDQ-P1 (1 nM); 105% in the experiment on MFM-223 [18] (1 nM); 121% in the experiment on MDA-MB-453 (1 nM). For the same compound, the normalised viability with CAL-51 [19] (1 nM) amounted to 111%; in the experiment with BT-474 [20] (1 nM), 102%; in the experiment on DU-4475 [21] (1 nM), 108%; with CAL-120 [22] (1 nM), 83.9%; in the experiment with SK-BR-3 [23] (1 nM) it was 93.8%; with Hs578T [24] (1 nM), 116%. In addition, the “EC50, CellTiter-Glo” value is 24400 nM in the experiment on BT-549 [1], more than 50000 nM with DU-4475 [9] and more than 50000 nM in the experiment with Hs578T [12].
